How the values were obtained:
[1] = molecular target: T1, human ether a go-go related gene (hERG) K+ channel (Homo sapiens, UniProt Q12809); assay: hERG assay, IonWorks patch clamp electrophysiology; type: cell-based; conditions: Chinese Hamster Lung cell line stably expressing hERG; max assay concentration 11 uM
T1 construct: a Chinese Hamster Lung cell line stably expressing the full length hERG channel; expressed in transfected cells; host or cells: Chinese Hamster Lung cell line
Experimental: Compounds of the invention were tested for inhibition of the human ether a go-go related gene (hERG) K^+ channel using IonWorks patch clamp electrophysiology. 8 Point concentration-response curves were generated on two occasions using 3-fold serial dilutions from the maximum assay concentration (11 uM). Electrophysiological recordings were made from a Chinese Hamster Lung cell line stably expressing the full length hERG channel. Single cell ion currents were measured in the perforated patch clamp configuration (100 ug/mL amphoterocin) at room temperature using an IonWorks Quattro instrument. The internal solution contained 140 mM KCl, 1 mM MgCl2, 1 mM EGTA and 20 mM HEPES and was buffered to pH 7.3. The external solution contained 138 mM NaCl, 2.7 mM KCl, 0.9 mM CaCl2, 0.5 mM MgCl2, 8 mM Na2HPO4 and 1.5 mM KH2PO4, and was buffered to pH 7.3. […] This sequence was repeated 5 times at a frequency of 0.25 Hz. Currents were measured from the tail step at the 5th pulse, and referenced to the holding current. Compounds were incubated for 6-7 min prior to a second measurement of the hERG signal using an identical pulse train. […] A control compound (quinidine) was used (see Table 20 below).

[2] = molecular target: T2, purified recombinantly expressed human SSAO (Homo sapiens, UniProt Q16853); assay: SSAO enzyme inhibition assay (benzylamine substrate; hydrogen peroxide/HRP-coupled or 14C aldehyde detection); type: biochemical; conditions: SSAO inhibitory activity, RT
T2 construct: made in house
T2 sequence (Q16853 1-763): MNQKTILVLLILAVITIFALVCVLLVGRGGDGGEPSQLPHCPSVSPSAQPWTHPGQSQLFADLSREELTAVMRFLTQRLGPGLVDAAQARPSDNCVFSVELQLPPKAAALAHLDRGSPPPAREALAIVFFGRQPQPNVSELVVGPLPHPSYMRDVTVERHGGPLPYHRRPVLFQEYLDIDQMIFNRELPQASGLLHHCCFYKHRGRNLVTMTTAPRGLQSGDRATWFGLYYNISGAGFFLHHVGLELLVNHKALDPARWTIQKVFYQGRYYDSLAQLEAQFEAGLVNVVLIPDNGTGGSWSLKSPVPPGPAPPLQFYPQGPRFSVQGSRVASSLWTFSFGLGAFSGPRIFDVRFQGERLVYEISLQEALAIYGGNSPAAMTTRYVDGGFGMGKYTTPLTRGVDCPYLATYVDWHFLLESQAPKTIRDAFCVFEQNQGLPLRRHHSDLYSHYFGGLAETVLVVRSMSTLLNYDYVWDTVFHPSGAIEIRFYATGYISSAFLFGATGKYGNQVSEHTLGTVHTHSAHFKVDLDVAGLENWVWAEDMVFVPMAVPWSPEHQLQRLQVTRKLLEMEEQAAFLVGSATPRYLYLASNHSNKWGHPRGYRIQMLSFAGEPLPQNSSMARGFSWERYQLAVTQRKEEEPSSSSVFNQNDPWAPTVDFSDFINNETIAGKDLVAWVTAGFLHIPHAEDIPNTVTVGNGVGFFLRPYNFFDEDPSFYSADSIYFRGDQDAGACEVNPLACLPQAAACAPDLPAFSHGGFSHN
Summary of the method: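 IC50 values came from a four-parameter logistic fit of % signal decrease versus DMSO control, with no-enzyme background subtracted. Two read-outs were used with human recombinant SSAO after ~15 min compound pre-incubation at RT. In the H2O2/HRP-Amplex read-out, enzyme was 1 ug/ml and benzylamine 100 uM (pH 7.4 phosphate), with resorufin fluorescence followed 1-2 h. In the 14C-benzaldehyde read-out (PBS), enzyme was 10 ug/ml and benzylamine 40 uM, run 1 h then acid-stopped.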

T1 sequence (Q12809 whole entry): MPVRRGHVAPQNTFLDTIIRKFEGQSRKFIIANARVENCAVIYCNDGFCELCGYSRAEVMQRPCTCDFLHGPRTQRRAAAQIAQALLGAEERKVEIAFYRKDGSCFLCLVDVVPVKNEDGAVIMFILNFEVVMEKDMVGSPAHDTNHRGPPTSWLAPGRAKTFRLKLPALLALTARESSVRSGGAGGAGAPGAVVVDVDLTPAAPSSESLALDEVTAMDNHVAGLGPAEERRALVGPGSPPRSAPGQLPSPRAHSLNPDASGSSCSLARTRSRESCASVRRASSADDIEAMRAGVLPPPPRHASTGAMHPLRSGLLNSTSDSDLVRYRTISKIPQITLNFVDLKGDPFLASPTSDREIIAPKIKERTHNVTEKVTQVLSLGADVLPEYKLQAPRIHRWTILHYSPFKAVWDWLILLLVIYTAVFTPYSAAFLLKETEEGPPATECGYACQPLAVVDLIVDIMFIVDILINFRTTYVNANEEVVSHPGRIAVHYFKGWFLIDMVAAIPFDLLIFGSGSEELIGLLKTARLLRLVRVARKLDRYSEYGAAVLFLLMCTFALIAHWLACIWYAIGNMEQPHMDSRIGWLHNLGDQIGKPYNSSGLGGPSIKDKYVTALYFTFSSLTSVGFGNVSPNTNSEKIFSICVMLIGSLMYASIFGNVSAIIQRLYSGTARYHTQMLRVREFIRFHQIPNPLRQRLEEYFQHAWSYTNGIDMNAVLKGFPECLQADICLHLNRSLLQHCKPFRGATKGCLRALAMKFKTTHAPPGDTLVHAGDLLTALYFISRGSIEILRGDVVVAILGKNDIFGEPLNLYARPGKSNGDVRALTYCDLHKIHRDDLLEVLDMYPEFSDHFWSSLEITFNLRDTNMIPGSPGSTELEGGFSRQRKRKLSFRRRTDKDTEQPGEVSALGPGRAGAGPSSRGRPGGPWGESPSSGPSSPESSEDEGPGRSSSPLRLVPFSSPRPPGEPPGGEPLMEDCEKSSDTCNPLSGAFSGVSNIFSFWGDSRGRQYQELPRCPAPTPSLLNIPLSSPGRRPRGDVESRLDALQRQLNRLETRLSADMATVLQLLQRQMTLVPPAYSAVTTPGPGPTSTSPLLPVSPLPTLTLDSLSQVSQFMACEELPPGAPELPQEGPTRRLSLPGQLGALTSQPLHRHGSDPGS

IC50 [2] [nM]	SMILES	IC50 [1] [nM]
< 50	Nc1cc(-c2cc3ccncc3n2-c2ccc(Cl)cc2)ccn1 [Example 147, 4-[1-(4-Chlorophenyl)-1H-pyrrolo[2,3-c]pyridin-2-yl]pyridin-2-amine]	1000 to 10000
< 50	Clc1ccc(-n2c(-c3ccc(CN4CCOCC4)nc3)cc3ccncc32)cc1 [Example 140, 4-({5-[1-(4-Chlorophenyl)-1H-pyrrolo[2,3-c]pyridin-2-yl]pyridin-2-yl}methyl)morpholine]	1000 to 10000
200 to 1200	Nc1ccc(-c2nc3ccncc3n2-c2ccc(Cl)cc2)cn1 [Example 110, 5-[3-(4-Chlorophenyl)-3H-imidazo[4,5-c]pyridin-2-yl]pyridin-2-amine]	> 10000
50 to 200	Fc1cc(Cl)ccc1-n1c(-c2ccc(N3CCOCC3)nc2)nc2ccncc21 [Example 80, 4-{5-[3-(4-Chloro-2-fluorophenyl)-3H-imidazo[4,5-c]pyridin-2-yl]pyridin-2-yl}morpholine]	> 10000
50 to 200	Clc1ccc(-n2c(-c3ccncc3Cl)cc3ccncc32)cc1 [Example 153, 3-Chloro-4-[1-(4-chlorophenyl)-1H-pyrrolo[2,3-c]pyridin-2-yl]pyridine]	1000 to 10000
< 50	Clc1ccc(-n2c(-c3ccc(N4CCOCC4)nc3)nc3ccncc32)nc1 [Example 81, 4-{5-[3-(5-Chloropyridin-2-yl)-3H-imidazo[4,5-c]pyridin-2-yl]pyridin-2-yl}morpholine]	> 10000
50 to 200	c1ccc(-n2c(-c3cnc(N4CCOCC4)nc3)nc3ccncc32)cc1 [Example 95, 4-(5-{3-Phenyl-3H-imidazo[4,5-c]pyridin-2-yl}pyrimidin-2-yl)morpholine]	> 10000
200 to 1200	COCCN(C)c1ncc(-c2nc3ccncc3n2-c2ccc(C)cc2)cn1 [Example 117, N-(2-Methoxyethyl)-N-methyl-5-[3-(4-methylphenyl)-3H-imidazo[4,5-c]pyridin-2-yl]pyrimidin-2-amine]	> 10000
< 50	Cc1ccc(-n2c(-c3ccc(N4CCOCC4)nc3)nc3ccncc32)nc1 [Example 82, 4-{5-[3-(5-Methylpyridin-2-yl)-3H-imidazo[4,5-c]pyridin-2-yl]pyridin-2-yl}morpholine]	> 10000
50 to 200	O=c1cc(-c2cc3ccncc3n2-c2ccc(Cl)cc2)cc[nH]1 [Example 142, 4-[1-(4-Chlorophenyl)-1H-pyrrolo[2,3-c]pyridin-2-yl]-1,2-dihydropyridin-2-one]	1000 to 10000
200 to 1200	Clc1ccc(-n2c(-c3ccncc3)cc3ccncc32)cc1 [Example 120, 4-[1-(4-Chlorophenyl)-1H-pyrrolo[2,3-c]pyridin-2-yl]pyridine]	1000 to 10000
< 50	CC(=O)NC1CCN(c2ccc(-c3nc4ccncc4n3-c3ccc(Cl)cc3)cn2)CC1 [Example 85, N-(1-{5-[3-(4-Chlorophenyl)-3H-imidazo[4,5-c]pyridin-2-yl]pyridin-2-yl}piperidin-4-yl)acetamide]	> 10000
< 50	Fc1ccc(-n2c(-c3cnc(N4CCOCC4)nc3)nc3ccncc32)c(F)c1 [Example 78, 4-{5-[3-(2,4-Difluorophenyl)-3H-imidazo[4,5-c]pyridin-2-yl]pyrimidin-2-yl}morpholine]	> 10000
200 to 1200	NC(=O)NC1CCN(c2ccc(-c3nc4ccncc4n3-c3ccc(Cl)cc3)cn2)CC1 [Example 91, (1-{5-[3-(4-Chlorophenyl)-3H-imidazo[4,5-c]pyridin-2-yl]pyridin-2-yl}piperidin-4-yl)urea; bis(trifluoroacetic acid)]	> 10000

More lines, now with the values behind:

SMILES	IC50 [2] [nM]	IC50 [1] [nM]
c1ccc(-n2c(-c3cnc(N4CCOCC4)nc3)cc3ccncc32)cc1 [Example 131, 4-(5-{1-Phenyl-1H-pyrrolo[2,3-c]pyridin-2-yl}pyrimidin-2-yl)morpholine]		1000 to 10000
O=C1CN(c2ncc(-c3nc4ccncc4n3-c3ccc(Cl)cc3)cn2)CCN1 [Example 13, 4-{5-[3-(4-Chlorophenyl)-3H-imidazo[4,5-c]pyridin-2-yl]pyrimidin-2-yl}piperazin-2-one]	< 50	> 10000
CC1(C)CN(c2ncc(-c3nc4ccncc4n3-c3ccc(F)cc3)cn2)CCO1 [Example 24, 4-{5-[3-(4-Fluorophenyl)-3H-imidazo[4,5-c]pyridin-2-yl]pyrimidin-2-yl}-2,2-dimethylmorpholine]	< 50	> 10000
Clc1ccc(-n2c(-c3ccncc3)nc3ccncc32)cc1 [Example 2, 4-[3-(4-Chlorophenyl)-3H-imidazo[4,5-c]pyridin-2-yl] pyridine]	200 to 1200	> 10000
CN1CCN(Cc2ccc(-c3nc4ccncc4n3-c3ccc(Cl)cc3)cc2)CC1 [Example 46, 1-({4-[3-(4-Chlorophenyl)-3H-imidazo[4,5-c]pyridin-2-yl]phenyl}methyl)-4-methylpiperazine; formic acid]	< 50	> 10000
Clc1ccc(-n2c(-c3cnc(N4CCOCC4)nc3)nc3ccncc32)cc1 [Example 51, 4-{5-[3-(4-Chlorophenyl)-3H-imidazo[4,5-c]pyridin-2-yl]pyrimidin-2-yl}morpholine]	< 50	1000 to 10000
Fc1cc(Cl)ccc1-n1c(-c2cnc(N3CCOCC3)nc2)nc2ccncc21 [Example 77, 4-{5-[3-(4-Chloro-2-fluorophenyl)-3H-imidazo[4,5-c]pyridin-2-yl]pyrimidin-2-yl}morpholine]	200 to 1200	> 10000
CN(C)c1ccc(-c2nc3ccncc3n2-c2ccc(F)cc2)cn1 [Example 71, 5-[3-(4-Fluorophenyl)-3H-imidazo[4,5-c]pyridin-2-yl]-N,N-dimethylpyridin-2-amine]	200 to 1200	> 10000
Fc1ccc(-n2c(-c3ccc(N4CCOCC4)nc3)nc3ccncc32)cc1 [Example 54, 4-{5-[3-(4-Fluorophenyl)-3H-imidazo[4,5-c]pyridin-2-yl]pyridin-2-yl}morpholine]	200 to 1200	> 10000
Clc1ccc(-n2c(-c3ccc(N4CCNCC4)nc3)nc3ccncc32)cc1 [Example 50, 1-{5-[3-(4-Chlorophenyl)-3H-imidazo[4,5-c]pyridin-2-yl]pyridin-2-yl}piperazine]	< 50	> 10000
C[C@@H]1CN(c2ncc(-c3nc4ccncc4n3-c3ccc(F)cc3)cn2)C[C@H](C)O1 [Example 23, (2R,6S)-4-{5-[3-(4-Fluorophenyl)-3H-imidazo [4,5-c]pyridin-2-yl]pyrimidin-2-yl}-2,6-dimethylmorpholine]	< 50	> 10000
Clc1ccc(-n2c(-c3cnc(NC4CCOCC4)nc3)nc3ccncc32)cc1 [Example 11, 5-[3-(4-Chlorophenyl)-3H-imidazo[4,5-c]pyridin-2-yl]-N-(oxan-4-yl)pyrimidin-2-amine; bis(trifluoroacetic acid)]	< 50	> 10000
Cc1cc(N2CCOCC2)ncc1-c1nc2ccncc2n1-c1ccc(F)cc1 [Example 21, 4-{5-[3-(4-Fluorophenyl)-3H-imidazo[4,5-c]pyridin-2-yl]-4-methylpyridin-2-yl}morpholine]	< 50	> 10000
Cc1ccc(-n2c(-c3ccc(N4CCOCC4)nc3)nc3ccncc32)c(F)c1 [Example 67, 4-{5-[3-(2-Fluoro-4-methylphenyl)-3H-imidazo[4,5-c]pyridin-2-yl]pyridin-2-yl}morpholine]	< 50	1000 to 10000
Cc1ccc(-n2c(-c3cnc(N4CCOCC4)nc3)nc3ccncc32)c(F)c1 [Example 53, 4-{5-[3-(2-Fluoro-4-methylphenyl)-3H-imidazo[4,5-c]pyridin-2-yl]pyrimidin-2-yl}morpholine]	200 to 1200	> 10000
